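96-well plates; 48 h exposure; 5 concentrations. Endpoints by linear interpolation between flanking doses. Not reached: highest tested concentration assigned. GI50 = concentration required for 50% inhibition of growth.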 Active and inactive are the calls of the source. No stated cut-off is given here; in the data, active = GI50 up to about 1.1 µM and inactive = higher.
Legend:
Assay in all cases: NCI tumour cell line growth inhibition, 48 h
[1] = system: U-251
[2] = system: SF-268
[3] = system: NCI-H226
[4] = system: DMS-114
[5] = system: ACHN
[6] = system: 786-0
[7] = system: UACC-62
[8] = system: UACC-257
[9] = system: HCT-15
[10] = system: K562
[11] = system: IGROV-1
[12] = system: CCRF-CEM
[13] = system: SF-539
[14] = system: SNB-78
[15] = system: RPMI-8226
[16] = system: DLD-1
[17] = system: HCT-116
[18] = system: KM12
[19] = system: NCI-H522
[20] = system: A549
[21] = system: HOP-18
[22] = system: SK-OV-3
[23] = system: Malme-3M
[24] = system: RXF 631
[25] = system: HOP-92
[26] = system: HCC 2998
[27] = system: M19-MEL
[28] = system: SW-620
[29] = system: XF498
[30] = system: OVCAR-3
[31] = system: SNB-75
[32] = system: M14
[33] = system: SN12C
[34] = system: SR
[35] = system: CAKI-1
[36] = system: HOP-62
[37] = system: SK-MEL-2
[38] = system: NCI-H23
[39] = system: UO-31
[40] = system: OVCAR-8
[41] = system: OVCAR-5
[42] = system: MOLT-4
[43] = system: SK-MEL-5
[44] = system: HL-60
[45] = system: TK-10
[46] = system: EKVX
[47] = system: SK-MEL-28
[48] = system: LXFL 529
[49] = system: HT-29
[50] = system: SF-295
[51] = system: COLO 205
[52] = system: LOX IMVI
[53] = system: RXF 393
[54] = system: SNB-19
[55] = system: KM-20L2
[56] = system: NCI-H460
[57] = system: DMS-273
[58] = system: A498

Measured: GI50

CCOC(=O)C1=C(C)NC2=C(C(=O)N(c3ccccc3)C2c2ccccc2)C1c1ccccc1 (configuration not stated)
inactive: [1] 15.1 µM | [2] 15.7 µM | [3] 19.9 µM | [4] 16.7 µM | [5] 14.1 µM | [6] 18.9 µM | [7] 12.6 µM | [8] 18.2 µM | [10] 29.9 µM | [11] 15.4 µM | [12] 21.2 µM | [13] 17.8 µM | [14] 19.4 µM | [15] 17.1 µM | [16] 16.5 µM | [17] 16.9 µM | [18] 17.1 µM | [19] 12.6 µM | [20] 17.8 µM | [21] 20.4 µM | [22] 17.1 µM | [23] 17.9 µM | [24] 16.1 µM | [25] 11.2 µM | [26] 17.7 µM | [27] 17.3 µM | [28] 19.8 µM | [29] 18.1 µM | [30] 12.3 µM | [31] 12.3 µM | [32] 16.7 µM | [33] 17.9 µM | [34] 16.9 µM | [35] 16 µM | [36] 17.1 µM | [37] 17.4 µM | [38] 17.2 µM | [39] 19.8 µM | [40] 20.1 µM | [41] 16.3 µM | [42] 19.8 µM | [43] 15.1 µM | [44] 26.1 µM | [45] 18.9 µM | [46] 17.9 µM | [47] 17.7 µM | [48] 16 µM | [49] 19.9 µM | [50] > 10 µM | [51] 18.7 µM | [52] 18.1 µM
16 µM: [9]

CC(=O)/C(=N\O)C(=O)NCc1ccccc1
35.9 µM: [9]
inactive: [1] > 100 µM | [2] > 100 µM | [3] > 100 µM | [4] 29.4 µM | [5] > 100 µM | [6] > 100 µM | [7] > 100 µM | [8] > 100 µM | [10] 36.4 µM | [11] > 100 µM | [12] > 100 µM | [13] > 100 µM | [14] > 100 µM | [15] > 100 µM | [16] > 100 µM | [17] > 100 µM | [18] > 100 µM | [19] > 100 µM | [20] > 100 µM | [21] > 100 µM | [22] > 100 µM | [23] > 100 µM | [53] > 100 µM | [24] > 100 µM | [25] > 100 µM | [26] > 100 µM | [28] 15.9 µM | [30] > 100 µM | [31] > 100 µM | [54] > 100 µM | [33] > 100 µM | [55] > 100 µM | [34] > 100 µM | [35] > 100 µM | [36] > 100 µM | [37] > 100 µM | [38] > 100 µM | [56] 35.2 µM | [39] > 100 µM | [40] > 100 µM | [41] > 100 µM | [42] > 100 µM | [43] > 100 µM | [44] > 100 µM | [45] > 100 µM | [46] > 100 µM | [47] > 100 µM | [48] > 100 µM | [57] > 100 µM | [49] > 100 µM | [50] > 100 µM | [58] > 100 µM | [51] 58.9 µM | [52] 20.2 µM
